{"source": "patent US12479803B2", "about": "“Antimalarial compounds” (UNIVERSITY OF CENTRAL FLORIDA RESEARCH FOUNDATION, INC., priority 2019, dated 2025)", "test_system": "CQ-resistant (Dd2) strain of P. falciparum", "assay": "In vitro antiplasmodial activity, SYBR Green I fluorescence assay, Dd2 strain", "format": "cell-based, Plasmodium falciparum", "method": "A set of 104 new styrylquinoline derivatives were synthesized and investigated for in vitro their antimalarial activity. To test antimalarial activities, different dilutions of compounds were added to P. falciparum culture. Following 72 h incubation at 37° C. in an atmosphere containing 5% CO2, the inhibitory property of the compounds were determined by SYBR Green I fluorescence assay. Meanwhile, SARs studies were conducted.\nThe SAR studies were focused on improving the in vitro activity of 2-arylvinylquinolines against the CQ-resistant Pf Dd2 strain.", "key": {"[1]": {"details": "CQ-resistant (Dd2) strain, 72 h incubation, read-out: EC50 (nmol)"}}, "note": "“And” between values parts separate entries of the source, which are not always exact repeats. Equal entries are not always repeated. Where two headings read alike, the source gives them in different places.", "data": [{"smiles": "CN(C)CCNc1cc(/C=C/c2ccc(F)cc2)nc2ccccc12", "note": "[Compound 34]", "values": [{"measurement": "EC50", "setting": "[1]", "result": "25.5 ± 7.1", "unit": "nM"}]}, {"smiles": "Fc1cc(F)c(/C=C/c2cc(NCCCCN3CCOCC3)c3cc(Cl)ccc3n2)cc1F", "note": "[Compound 107]", "values": [{"measurement": "EC50", "setting": "[1]", "result": "197 ± 39.7", "unit": "nM"}]}, {"smiles": "Fc1ccc(/C=C/c2cc(N3CCC(N4CCCCC4)CC3)c3cc(Cl)ccc3n2)cc1", "note": "[Compound 71]", "values": [{"measurement": "EC50", "setting": "[1]", "result": "487 ± 69.5", "unit": "nM"}]}, {"smiles": "CN(C)CCNc1cc(/C=C/c2cc3ccccc3[nH]2)nc2ccc(Cl)cc12", "note": "[Compound 54]", "values": [{"measurement": "EC50", "setting": "Dd2 strain, read-out: EC50", "result": "95.9 ± 6.7", "unit": "nM"}]}, {"smiles": "CN(C)CCNc1cc(/C=C/c2ccc(N(C)C)cc2)nc2ccc(Cl)cc12", "note": "[Compound 28]", "values": [{"measurement": "EC50", "setting": "[1]", "result": "88.3 ± 2.2", "unit": "nM"}]}, {"smiles": "CN(C)CCNc1cc(/C=C/c2ccco2)nc2ccc(F)cc12", "note": "[Compound 44]", "values": [{"measurement": "EC50", "setting": "Dd2 strain, read-out: EC50", "result": "82.6 ± 9.4", "unit": "nM"}]}, {"smiles": "Fc1cc(F)cc(/C=C/c2cc(NCCCCN3CCOCC3)c3cc(Cl)ccc3n2)c1", "note": "[Compound 103]", "values": [{"measurement": "EC50", "setting": "[1]", "result": "185 ± 34.1", "unit": "nM"}]}, {"smiles": "Clc1ccc2nc(/C=C/c3ccccc3)cc(NCCN3CCCC3)c2c1", "note": "[Compound 84]", "values": [{"measurement": "EC50", "setting": "[1]", "result": "107 ± 8.4", "unit": "nM"}]}, {"smiles": "COc1ccc2nc(/C=C/c3cccnc3)cc(NCCN(C)C)c2c1", "note": "[Compound 43]", "values": [{"measurement": "EC50", "setting": "[1]", "result": "71 ± 27.5", "unit": "nM"}]}, {"smiles": "CN(C)CCNc1cc(/C=C/c2cccnc2)nc2ccc(Cl)cc12", "note": "[Compound 52]", "values": [{"measurement": "EC50", "setting": "[1]", "result": "33.6 ± 5.8", "unit": "nM"}]}, {"smiles": "COc1ccc(/C=C/c2cc(NCCN(C)C)c3cc(Cl)ccc3n2)cc1OC", "note": "[Compound 26]", "values": [{"measurement": "EC50", "setting": "[1]", "result": "38.9 ± 7.8", "unit": "nM"}]}, {"smiles": "COc1ccc2nc(/C=C/c3ccncc3)cc(NCCN(C)C)c2c1", "note": "[Compound 41]", "values": [{"measurement": "EC50", "setting": "Dd2 strain, read-out: EC50", "result": "33.6 nM and 38.8 nM"}]}, {"smiles": "CN(C)CCNc1cc(/C=C/c2ccc([N+](=O)[O-])cc2)nc2ccccc12", "note": "[Compound 33]", "values": [{"measurement": "EC50", "setting": "[1]", "result": "47.9 ± 9.5", "unit": "nM"}]}, {"smiles": "COc1ccc2nc(/C=C/c3ccccn3)cc(NCCN(C)C)c2c1", "note": "[Compound 42]", "values": [{"measurement": "EC50", "setting": "Dd2 strain, read-out: EC50", "result": "1030 ± 233", "unit": "nM"}]}, {"smiles": "COc1ccc(/C=C/c2cc(NCCN(C)C)c3cc(Cl)ccc3n2)cc1", "note": "[Compound 25]", "values": [{"measurement": "EC50", "setting": "[1]", "result": "34.8 ± 7.9", "unit": "nM"}]}, {"smiles": "Cc1cc(NCCCN(C)C)c2cc(Cl)ccc2n1", "note": "[Compound 6e]", "values": [{"measurement": "EC50", "setting": "[1]", "result": "1240 ± 139", "unit": "nM"}, {"measurement": "EC50", "setting": "Dd2 strain", "result": "inactive"}]}, {"smiles": "CN(C)CCNc1cc(/C=C/c2ccccn2)nc2ccc(Cl)cc12", "note": "[Compound 51]", "values": [{"measurement": "EC50", "setting": "[1]", "result": "67.5 ± 1.9", "unit": "nM"}]}, {"smiles": "Clc1ccc2nc(-c3ccncc3)cc(NCCCCN3CCOCC3)c2c1", "note": "[Compound 120]", "values": [{"measurement": "EC50", "setting": "[1]", "result": "796 ± 161", "unit": "nM"}]}, {"smiles": "Fc1cc(/C=C/c2cc(NCCCCN3CCOCC3)c3cc(Cl)ccc3n2)cc(F)c1F", "note": "[Compound 108]", "values": [{"measurement": "EC50", "setting": "[1]", "result": "130 ± 34.9", "unit": "nM"}]}, {"smiles": "COc1ccc2nc(/C=C/c3ccco3)cc(NCCN(C)C)c2c1", "note": "[Compound 39]", "values": [{"measurement": "EC50", "setting": "Dd2 strain, read-out: EC50", "result": "88.7 ± 2.3", "unit": "nM"}]}, {"smiles": "COc1ccc2nc(/C=C/c3ccc(OC)c(OC)c3)cc(NCCN(C)C)c2c1", "note": "[Compound 13]", "values": [{"measurement": "EC50", "setting": "[1]", "result": "187 ± 13.6", "unit": "nM"}]}, {"smiles": "FC(F)(F)c1cccc(/C=C/c2cc(NCCCCN3CCOCC3)c3cc(Cl)ccc3n2)c1", "note": "[Compound 100]", "values": [{"measurement": "EC50", "setting": "[1]", "result": "33.9 ± 1.4", "unit": "nM"}]}, {"smiles": "Fc1ccc(/C=C/C=C/c2cc(NCCCCN3CCOCC3)c3cc(Cl)ccc3n2)cc1", "note": "[Compound 113]", "values": [{"measurement": "EC50", "setting": "[1]", "result": "96.5 ± 24.4", "unit": "nM"}]}, {"smiles": "CN(C)CCNc1cc(/C=C/c2ccc([N+](=O)[O-])cc2)nc2ccc(Cl)cc12", "note": "[Compound 23]", "values": [{"measurement": "EC50", "setting": "[1]", "result": "28.7 ± 3.8", "unit": "nM"}]}, {"smiles": "COc1ccc(/C=C/c2cc(NCCN(C)C)c3cc(OC)ccc3n2)cc1", "note": "[Compound 12]", "values": [{"measurement": "EC50", "setting": "[1]", "result": "43.6 ± 2", "unit": "nM"}]}, {"smiles": "CN(C)CCNc1cc(CCc2ccncc2)nc2ccc(Cl)cc12", "note": "[Compound 59]", "values": [{"measurement": "EC50", "setting": "Dd2 strain, read-out: EC50", "result": "259 ± 15.5", "unit": "nM"}]}, {"smiles": "FC(F)(F)c1ccc(/C=C/c2cc(NCCCN3CCOCC3)c3cc(Cl)ccc3n2)cc1", "note": "[Compound 91]", "values": [{"measurement": "EC50", "setting": "[1]", "result": "84.8 ± 6.3", "unit": "nM"}]}, {"smiles": "FC(F)(F)Oc1ccc(/C=C/c2cc(NCCCCN3CCOCC3)c3cc(Cl)ccc3n2)cc1", "note": "[Compound 101]", "values": [{"measurement": "EC50", "setting": "[1]", "result": "56.6 ± 7.6", "unit": "nM"}]}, {"smiles": "COc1ccc2nc(C)cc(NCCN(C)C)c2c1", "note": "[Compound 6a]", "values": [{"measurement": "EC50", "setting": "[1]", "result": "5520 ± 571", "unit": "nM"}, {"measurement": "EC50", "setting": "Dd2 strain", "result": "inactive"}]}, {"smiles": "CN(C)CCNc1cc(/C=C/c2cncnc2)nc2ccc(Cl)cc12", "note": "[Compound 53]", "values": [{"measurement": "EC50", "setting": "Dd2 strain, read-out: EC50", "result": "155 ± 11.6", "unit": "nM"}]}, {"smiles": "Clc1ccc2nc(/C=C/c3ccncc3)cc(N3CCN(c4ccccn4)CC3)c2c1", "note": "[Compound 68]", "values": [{"measurement": "EC50", "setting": "[1]", "result": "2570 ± 610", "unit": "nM"}]}, {"smiles": "Fc1ccc(/C=C/c2cc(NCCCCN3CCOCC3)c3cc(Cl)ccc3n2)c(F)c1", "note": "[Compound 104]", "values": [{"measurement": "EC50", "setting": "[1]", "result": "72.6 ± 17.2", "unit": "nM"}]}, {"smiles": "CN(C)CCNc1cc(/C=C/C2CCCCC2)nc2ccc(Cl)cc12", "note": "[Compound 57]", "values": [{"measurement": "EC50", "setting": "[1]", "result": "394 ± 40", "unit": "nM"}]}, {"smiles": "CN(C)CCCCNc1cc(/C=C/c2ccc(F)cc2)nc2ccc(Cl)cc12", "note": "[Compound 37]", "values": [{"measurement": "EC50", "setting": "[1]", "result": "51.2 ± 1.6", "unit": "nM"}]}, {"smiles": "Fc1ccc(/C=C/c2cc(N3CCN(c4ccccn4)CC3)c3cc(Cl)ccc3n2)cc1", "note": "[Compound 67]", "values": [{"measurement": "EC50", "setting": "[1]", "result": "3300 ± 60", "unit": "nM"}]}, {"smiles": "CN(C)CCNc1cc(/C=C/c2cccs2)nc2ccc(F)cc12", "note": "[Compound 45]", "values": [{"measurement": "EC50", "setting": "[1]", "result": "111 ± 29.1", "unit": "nM"}]}, {"smiles": "CN1CCN(CCCCNc2cc(/C=C/c3ccccc3)nc3ccc(Cl)cc23)CC1", "note": "[Compound 94]", "values": [{"measurement": "EC50", "setting": "[1]", "result": "58.9 ± 8.8", "unit": "nM"}]}, {"smiles": "Fc1ccc(/C=C/c2cc(NCCCCN3CCOCC3)c3cc(Cl)ccc3n2)nc1", "note": "[Compound 111]", "values": [{"measurement": "EC50", "setting": "[1]", "result": "73.1 ± 11.9", "unit": "nM"}]}, {"smiles": "CN(C)CCNc1cc(/C=C/c2ccc(F)cc2)nc2ccc(F)cc12", "note": "[Compound 18]", "values": [{"measurement": "EC50", "setting": "[1]", "result": "30.9 ± 5.5", "unit": "nM"}]}, {"smiles": "COc1ccc2nc(/C=C/c3ccccc3[N+](=O)[O-])cc(NCCN(C)C)c2c1", "note": "[Compound 10]", "values": [{"measurement": "EC50", "setting": "Dd2 strain, read-out: EC50", "result": "56.3 ± 8.1", "unit": "nM"}]}, {"smiles": "CN(C)CCNc1cc(/C=C/c2cccs2)nc2ccc(Cl)cc12", "note": "[Compound 48]", "values": [{"measurement": "EC50", "setting": "[1]", "result": "29.7 ± 4.6", "unit": "nM"}]}, {"smiles": "COc1ccc2nc(/C=C/c3ccc(F)cc3)cc(NCCN(C)C)c2c1", "note": "[Compound 15]", "values": [{"measurement": "EC50", "setting": "[1]", "result": "32.9 ± 5.1", "unit": "nM"}]}]}
